Data reported in ChEMBL document CHEMBL3885881, “DrugMatrix”.

Species on record: Rattus norvegicus
Experiment: DrugMatrix - Regimen: Daily Repeat
Type: toxicity, organism-based, Sprague-Dawley
Design: regimen Daily Repeat, gender Male, age 6-8 weeks
Details: in vivo, po, 0 mg/kg, route oral GAVAGE, dose level Control, vehicle 100 % WATER; for ABSOLUTE BASOPHIL / ABSOLUTE EOSINOPHIL / ABSOLUTE LYMPHOCYTE / ABSOLUTE MONOCYTE / ABSOLUTE SEGMENTED NEUTROPHIL / BASOPHIL / EOSINOPHIL / ERYTHROCYTE COUNT / HEMATOCRIT / HEMOGLOBIN / LEUKOCYTE COUNT / LYMPHOCYTE / MEAN CORPUSCULAR HEMOGLOBIN / MEAN CORPUSCULAR VOLUME / MONOCYTE / NEUTROPHIL / NUCLEATED RED BLOOD CELLS / PLATELET COUNT: tissue Blood; for ALANINE AMINOTRANSFERASE / ALBUMIN / ALKALINE PHOSPHATASE / ASPARTATE AMINOTRANSFERASE / BLOOD UREA NITROGEN / CARBON DIOXIDE / CHLORIDE / CHOLESTEROL / CREATINE PHOSPHOKINASE / CREATININE / GLUCOSE / LACTATE DEHYDROGENASE / LIPASE / PHOSPHORUS / POTASSIUM / SODIUM / TOTAL BILIRUBIN / TOTAL PROTEIN / URIC ACID: tissue Plasma

CCCCCCCCCCCCCCCC[n+]1ccccc1.[Br-]
ABSOLUTE BASOPHIL (72 h, time 3 day): 0 CELLS/uL
ABSOLUTE EOSINOPHIL (72 h, time 3 day): 58.83 CELLS/uL
ABSOLUTE LYMPHOCYTE (72 h, time 3 day): 11823.5 CELLS/uL
ABSOLUTE MONOCYTE (72 h, time 3 day): 169 CELLS/uL
ABSOLUTE SEGMENTED NEUTROPHIL (72 h, time 3 day): 815.33 CELLS/uL
BASOPHIL (72 h, time 3 day): 0%
EOSINOPHIL (72 h, time 3 day): 0.5%
ERYTHROCYTE COUNT (72 h, time 3 day): 5.52 x10E6/uL
HEMATOCRIT (72 h, time 3 day): 35.77%
HEMOGLOBIN (72 h, time 3 day): 14.28 G/DL
LEUKOCYTE COUNT (72 h, time 3 day): 12.87 x10E3/uL
LYMPHOCYTE (72 h, time 3 day): 91.67%
MEAN CORPUSCULAR HEMOGLOBIN (72 h, time 3 day): 25.92 pg
MEAN CORPUSCULAR VOLUME (72 h, time 3 day): 64.85 fL
MONOCYTE (72 h, time 3 day): 1.33%
NEUTROPHIL (72 h, time 3 day): 6.5%
NUCLEATED RED BLOOD CELLS (72 h, time 3 day): 0 /100WBC
PLATELET COUNT (72 h, time 3 day): 1246.17 x10E3/uL
ALANINE AMINOTRANSFERASE (72 h, time 3 day): 66 u/L
ALBUMIN (72 h, time 3 day): 4.25 G/DL
ALKALINE PHOSPHATASE (72 h, time 3 day): 416 u/L
ASPARTATE AMINOTRANSFERASE (72 h, time 3 day): 106.17 u/L
BLOOD UREA NITROGEN (72 h, time 3 day): 12.67 mg/dL
CARBON DIOXIDE (72 h, time 3 day): 31.83 mmol/L
CHLORIDE (72 h, time 3 day): 102.5 MEQ/L
CHOLESTEROL (72 h, time 3 day): 69 mg/dL
CREATINE PHOSPHOKINASE (72 h, time 3 day): 601.83 u/L
CREATININE (72 h, time 3 day): 0.18 mg/dL
GLUCOSE (72 h, time 3 day): 154.5 mg/dL
LACTATE DEHYDROGENASE (72 h, time 3 day): 301.83 u/L
LIPASE (72 h, time 3 day): 11.17 u/L
PHOSPHORUS (72 h, time 3 day): 12.08 mg/dL
POTASSIUM (72 h, time 3 day): 6.12 MEQ/L
SODIUM (72 h, time 3 day): 145.2 MEQ/L
TOTAL BILIRUBIN (72 h, time 3 day): 0.17 mg/dL
TOTAL PROTEIN (72 h, time 3 day): 6.1 G/DL
URIC ACID (72 h, time 3 day): 1.57 mg/dL
ABSOLUTE BASOPHIL (120 h, time 5 day): 0 CELLS/uL
ABSOLUTE EOSINOPHIL (120 h, time 5 day): 19.33 CELLS/uL
ABSOLUTE LYMPHOCYTE (120 h, time 5 day): 12577.83 CELLS/uL
ABSOLUTE MONOCYTE (120 h, time 5 day): 106.33 CELLS/uL
ABSOLUTE SEGMENTED NEUTROPHIL (120 h, time 5 day): 896.5 CELLS/uL
BASOPHIL (120 h, time 5 day): 0%
EOSINOPHIL (120 h, time 5 day): 0.17%
ERYTHROCYTE COUNT (120 h, time 5 day): 5.84 x10E6/uL
HEMATOCRIT (120 h, time 5 day): 36.88%
HEMOGLOBIN (120 h, time 5 day): 14.48 G/DL
LEUKOCYTE COUNT (120 h, time 5 day): 13.6 x10E3/uL
LYMPHOCYTE (120 h, time 5 day): 92.17%
MEAN CORPUSCULAR HEMOGLOBIN (120 h, time 5 day): 24.85 pg
MEAN CORPUSCULAR VOLUME (120 h, time 5 day): 63.23 fL
MONOCYTE (120 h, time 5 day): 0.83%
NEUTROPHIL (120 h, time 5 day): 6.83%
NUCLEATED RED BLOOD CELLS (120 h, time 5 day): 0 /100WBC
PLATELET COUNT (120 h, time 5 day): 1223.5 x10E3/uL
ALANINE AMINOTRANSFERASE (120 h, time 5 day): 55.33 u/L
ALBUMIN (120 h, time 5 day): 4.08 G/DL
ALKALINE PHOSPHATASE (120 h, time 5 day): 355.5 u/L
ASPARTATE AMINOTRANSFERASE (120 h, time 5 day): 87.67 u/L
BLOOD UREA NITROGEN (120 h, time 5 day): 15.33 mg/dL
CARBON DIOXIDE (120 h, time 5 day): 33.83 mmol/L
CHLORIDE (120 h, time 5 day): 99.67 MEQ/L
CHOLESTEROL (120 h, time 5 day): 72.17 mg/dL
CREATINE PHOSPHOKINASE (120 h, time 5 day): 268.33 u/L
CREATININE (120 h, time 5 day): 0.15 mg/dL
GLUCOSE (120 h, time 5 day): 152.5 mg/dL
LACTATE DEHYDROGENASE (120 h, time 5 day): 212.67 u/L
LIPASE (120 h, time 5 day): 10.83 u/L
PHOSPHORUS (120 h, time 5 day): 11.65 mg/dL
POTASSIUM (120 h, time 5 day): 6.73 MEQ/L
SODIUM (120 h, time 5 day): 142.43 MEQ/L
TOTAL BILIRUBIN (120 h, time 5 day): 0.23 mg/dL
TOTAL PROTEIN (120 h, time 5 day): 6.07 G/DL
URIC ACID (120 h, time 5 day): 1.7 mg/dL
